# Results from patent US12390437B2, “Itaconic acid derivatives and uses thereof intreating an inflammatory disease or a disease associated with an undesirable immune response” (Sitryx Therapeutics Limited, priority 2019, dated 2025).
# Experiments:
# [1] = system: NRF2; test: NRF2 +/-GSH activation assay (DiscoverX PathHunter NRF2 translocation kit, U2OS cells); assay type: cell-based; settings: Homo sapiens, GSH condition not stated in Table 5; for Emax: U2OS, normalised to dimethyl fumarate 'High' control, read-out: NRF2 activation Emax; for EC50: U2OS PathHunter cells, 6 hours, read-out: NRF2 activation EC50
# Method in brief: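 PathHunter U2OS cells, plated 24 hrs, measured NRF2 nuclear translocation by enzyme-fragment complementation luminescence after 6 hours compound exposure at 37 °C. For +GSH, compound was pre-incubated 30 minutes with GSH (6 mM working stock). EC50 from % activation normalised to dimethyl fumarate high control.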
# [2] = Hepatocyte stability assay (human); assay type: in vitro ADME; settings: cryopreserved hepatocytes, 10 μM compound, 0.5×10^6 cells/mL, 60 minutes, read-out: T½
# From the text: (§1) Defrosted cryo-preserved hepatocytes (viability >70%) are used to determine the metabolic stability of a compound via calculation of intrinsic clearance (Clint; a measure of the removal of a compound from the liver in the absence of blood flow and cell binding). Clearance data are particularly important for in vitro work as they can be used in combination with in vivo data to predict the half-life and oral bioavailability of a drug.
# (§2) The metabolic stability in hepatocytes assay involves a time-dependent reaction using both positive and negative controls. The cells must be pre-incubated at 37° C. then spiked with test compound (and positive control); samples taken at pre-determined time intervals are analysed to monitor the change in concentration of the initial drug compound over 60 minutes. A buffer incubation reaction (with no hepatocytes present) acts as a negative control and two cocktail solutions, containing compounds with known high and low clearance values (verapamil/7-hydroxycoumarin and propranolol/diltiazem), act as positive controls. • 1. The assay is run with a cell concentration of 0.5×10^6 cells/mL in Leibovitz buffer. • 2. All compounds and controls are run in duplicate. • 3. Compound concentration is 10 μM. • 4. All compounds and controls are incubated with both cells and buffer to show turnover is due to hepatic metabolism. • 5. All wells on the incubation plate will have 326.7 μL of either cells or buffer added. • 6. Prior to assay, cell and buffer-only incubation plates are preincubated for 10 mins at 37° C. • 7. The assay is initiated by adding compounds, 3.3 μL of 1 mM in 10% DMSO-90% Buffer; final DMSO concentration is 0.1%. • 8. Samples are taken at regular timepoints (0, 5, 10, 20, 40, 60 min) until 60 mins. • 9. Sample volume is 40 μL and it is added to 160 μL of crash solvent (acetonitrile with internal standard) and stored on ice. • 10. At the end of the assay, the crash plates are centrifuged at 3500 rpm for 20 mins at 4° C. • 11. 80 μL of clear supernatant is removed and mixed with 80 μL of deionised water before being analysed by LC-MS/MS.
# (§3) Raw LC-MS/MS data are exported to, and analysed in, Microsoft Excel for determination of intrinsic clearance. The percentage remaining of a compound is monitored using the peak area of the initial concentration as 100%. Intrinsic clearance and half-life values are calculated using a graph of the natural log of percentage remaining versus the time of reaction in minutes. Half-life (min) and intrinsic clearance (Clint in μL min^−1 10^−6 cells) values are calculated using the gradient of the graph (the elimination rate constant, k) and Equations 1 and 2.
# [3] = system: hepatocytes; test: Hepatocyte stability assay (human); assay type: in vitro ADME; settings: 10 μM compound, 0.5×10^6 cells/mL, 60 minutes
# From the text: as §1, §2, §3
# [4] = Hepatocyte stability assay (mouse); assay type: in vitro ADME; settings: cryopreserved hepatocytes, 10 μM compound, 0.5×10^6 cells/mL, 60 minutes, read-out: T½
# From the text: as §1, §2, §3
# [5] = system: hepatocytes; test: Hepatocyte stability assay (mouse); assay type: in vitro ADME; settings: 10 μM compound, 0.5×10^6 cells/mL, 60 minutes
# From the text: as §1, §2, §3
smiles,measurement,setting,value
"C=C(CC(=O)OC1CCCCC1)C(=O)OCc1nnn[nH]1 [Example 125, 1-((2H-tetrazol-5-yl)methyl) 4-cyclohexyl 2-methylenesuccinate]",Emax,[1],116%
same,EC50,[1],38.3 µM
same,half-life at 10 μM,[2],198 min
same,CIint (μL min^−1 10^−6 cells),[3],9 μL min^−1 10^−6 cells
same,half-life at 10 μM,[4],16 min
same,CIint (μL min^−1 10^−6 cells),[5],101 μL min^−1 10^−6 cells
"C=C(CC(=O)O[C@@H](C)CCCCCC)C(=O)OCCc1nnn[nH]1 [Example 129, (S)-1-(2-(1H-tetrazol-5-yl)ethyl) 4-octan-2-yl 2-methylenesuccinate]",Emax,[1],178%
same,EC50,[1],5.8 µM
same,half-life at 10 μM,[2],108 min
same,CIint (μL min^−1 10^−6 cells),[3],55 μL min^−1 10^−6 cells
same,half-life at 10 μM,[4],4 min
same,CIint (μL min^−1 10^−6 cells),[5],378 μL min^−1 10^−6 cells
"C=C(CC(=O)OC1CCCCCCC1)C(=O)OC(C)c1nnn[nH]1 (stereo not drawn) [Example 133, 1-(1-(1H-tetrazol-5-yl)ethyl) 4-cyclooctyl 2-methylenesuccinate]",Emax,[1],227%
same,EC50,[1],33.3 µM
same,half-life at 10 μM,[2],30 min
same,CIint (μL min^−1 10^−6 cells),[3],48 μL min^−1 10^−6 cells
same,half-life at 10 μM,[4],14 min
same,CIint (μL min^−1 10^−6 cells),[5],107 μL min^−1 10^−6 cells
"C=C(CC(=O)OC1CCCCCCC1)C(=O)OCc1nnn[nH]1 [Example 134, 1-((1H-tetrazol-5-yl)methyl) 4-cyclooctyl 2-methylenesuccinate]",Emax,[1],183%
same,EC50,[1],20 µM
same,half-life at 10 μM,[2],53 min
same,CIint (μL min^−1 10^−6 cells),[3],27 μL min^−1 10^−6 cells
same,half-life at 10 μM,[4],7 min
same,CIint (μL min^−1 10^−6 cells),[5],256 μL min^−1 10^−6 cells
"C=C(CC(=O)O[C@H](C)CCCCCC)C(=O)OCc1nn[nH]n1 [Example 161, (R)-1-((2H-tetrazol-5-yl)methyl) 4-(octan-2-yl) 2-methylenesuccinate]",Emax,[1],146%
same,EC50,[1],5 µM
same,half-life at 10 μM,[2],22 min
same,CIint (μL min^−1 10^−6 cells),[3],55 μL min^−1 10^−6 cells
same,half-life at 10 μM,[4],< 3 min
same,CIint (μL min^−1 10^−6 cells),[5],>460 μL min^−1 10^−6 cells
"C=C(CC(=O)O[C@@H](C)CCCCCC)C(=O)OCc1nn[nH]n1 [Example 164, (S)-1-(2H-tetrazol-5-yl)methyl 4-octan-2-yl 2-methylenesuccinate]",Emax,[1],168%
same,EC50,[1],4.9 µM
same,half-life at 10 μM,[2],33 min
same,CIint (μL min^−1 10^−6 cells),[3],42 μL min^−1 10^−6 cells
same,half-life at 10 μM,[4],5 min
same,CIint (μL min^−1 10^−6 cells),[5],259 μL min^−1 10^−6 cells
"C=C(CC(=O)O[C@@H](CCCCCC)C(F)(F)F)C(=O)OCC(=O)O [Example 182, (S)-2-((2-methylene-4-oxo-4-((1,1,1-trifluorooctan-2-yl)oxy)butanoyl)oxy)acetic acid]",Emax,[1],188%
same,EC50,[1],5.5 µM
same,half-life at 10 μM,[2],28 min
same,CIint (μL min^−1 10^−6 cells),[3],60 μL min^−1 10^−6 cells
same,half-life at 10 μM,[4],9 min
same,CIint (μL min^−1 10^−6 cells),[5],187 μL min^−1 10^−6 cells
"C=C(CC(=O)OC(C)(C)CCCCCC)C(=O)OCC(=O)O [Example 192, 2-((2-methylene-4-((2-methyloctan-2-yl)oxy)-4-oxobutanoyl)oxy)acetic acid]",Emax,[1],194%
same,EC50,[1],11.8 µM
same,half-life at 10 μM,[2],54 min
same,CIint (μL min^−1 10^−6 cells),[3],32 μL min^−1 10^−6 cells
same,half-life at 10 μM,[4],5 min
same,CIint (μL min^−1 10^−6 cells),[5],350 μL min^−1 10^−6 cells
